Results: patent US5925671A, “Antitumor isocoumarins” (Pharma Mar, s.a., priority 1995, dated 1999)
Converted amounts (≈) assume the structure as drawn. Bridge positions count the residues as written; N and C are the ends. Square brackets hold non-standard residues; d marks the D form. Peptide text beside a SMILES is read from it. * marks the point of attachment. Ileψ(thiazoline)Cys = CC[C@H](C)[C@H](N)C1=N[C@H](C(=O)*)CS1; dOrn = NCCC[C@@H](N)C(=O)O

What was measured:
Assay type in all cases: cell-based
[1] = tested on: Bacillus sp. M-00-PHD-090 (CETC 4546); assay: Antibiotic sensitivity of the producing strain (PASCO Data Management System MIC Gram Positive); details: 28° C., 48 hours incubation
Method: 5. Antibiotic Sensitivity - PASCO™ Data Management System (Difco) MIC Gram Positive
All cultures were incubated at 28° C. and records of the results were made after 48 hours incubation time. The descriptions of the culture and test results are as follows: […]

[2] = tested on: A-549 (monolayer culture of a human lung carcinoma); assay: Antitumor activity: growth inhibition of A-549 cells, 3 days, Crystal Violet staining; details: for IC50: Homo sapiens, A549, 72 h, A-549, three days, 37° C., approximate IC50; for antitumour activity against A-549 human lung carcinoma: statement in words
Description: (§1) An adapted form of the method described by Bergeron et al ("Antineoplastic an antiherpetic activity of spermidine catecholamide iron chelators" Biochem. Bioph. Res. Comm., 1984, 121(3), 848-854, and see also Schroeder et al, "Effects of Acyclic Pyrimidine Nucleoside Analogues" Med. Chem., 1981, 24 1078-1083) was used to determine the antitumor activity of the compounds of this invention. Three cultures of antitumour cell were employed. A-549 (monolayer culture of a human lung carcinoma, HT-29 (monolayer culture of a human colon carcinoma) and MEL-28 J (monolayer culture of a human melanoma).
(§2) A-549, HT-29 and MEL-28 were seeded into 16 mm wells at 2×20" cells per well in 1 ml aliquots of MEM 10FCS containing the identical concentration of drug. A separate set of cultures without drug was seeded a control growth to ensure that cells remained in exponential phase of growth. All determinations were carried out in duplicate. After three days of incubation at 37° C., 10% CO2 in 98% humid atmosphere, the wells were stained with 0.1% Crystal Violet. An approximate IC50 was determined by comparing growth in wells with drug to the growth in control wells.

[3] = tested on: HT-29 (monolayer culture of a human colon carcinoma); assay: Antitumor activity: growth inhibition of HT-29 cells, 3 days, Crystal Violet staining; details: for IC50: Homo sapiens, 72 h, HT-29, three days, 37° C., approximate IC50; for antitumour activity against HT-29 human colon carcinoma: statement in words
Description: as §1, §2

[4] = tested on: MEL-28 (monolayer culture of a human melanoma); assay: Antitumor activity: growth inhibition of MEL-28 cells, 3 days, Crystal Violet staining; details: for IC50: Homo sapiens, SK-MEL-28, 72 h, MEL-28, three days, 37° C., approximate IC50; for antitumour activity against MEL-28 human melanoma: statement in words
Description: as §1, §2

## [H]/N=C(/N)N[C@H]1[C@H](O)[C@@H](O)[C@H](O[C@@H]2O[C@@H](C)[C@](O)(C=O)[C@H]2O[C@@H]2O[C@@H](CO)[C@H](O)[C@@H](O)[C@@H]2NC)[C@@H](N/C(N)=N\[H])[C@@H]1O [streptomycin]
[1]
  Antibiotic sensitivity: Sensitive

## CO[C@@H]1[C@@H](OC(N)=O)[C@@H](O)[C@H](Oc2ccc3c(O)c(NC(=O)c4ccc(O)c(CC=C(C)C)c4)c(=O)oc3c2C)OC1(C)C [novobiocin]
[1]
  Antibiotic sensitivity: Sensitive

## NCC[C@H](O)C(=O)N[C@@H]1C[C@H](N)[C@@H](O[C@H]2O[C@H](CN)[C@@H](O)[C@H](O)[C@H]2O)[C@H](O)[C@H]1O[C@H]1O[C@H](CO)[C@@H](O)[C@H](N)[C@H]1O [amikacin]
[1]
  Antibiotic sensitivity: Sensitive

## CCn1cc(C(=O)O)c(=O)c2cc(F)c(N3CCNCC3)cc21 [norfloxacin]
[1]
  Antibiotic sensitivity: Sensitive

## Cc1onc(-c2ccccc2)c1C(=O)N[C@@H]1C(=O)N2[C@@H]1SC(C)(C)[C@@H]2C(=O)O [oxacillin]
[1]
  Antibiotic sensitivity: Sensitive

## gentamicin
[1]
  Antibiotic sensitivity: Sensitive

## N[C@@H](C(=O)N[C@@H]1C(=O)N2C(C(=O)O)=C(Cl)CS[C@H]12)c1ccccc1 [ceflactor]
[1]
  Antibiotic sensitivity: Sensitive

## CC1(C)S[C@@H]2[C@H](NC(=O)Cc3ccccc3)C(=O)N2[C@H]1C(=O)O [penicillin]
[1]
  Antibiotic sensitivity: Sensitive

## CO/N=C(\C(=O)N[C@@H]1C(=O)N2C(C(=O)O)=C(COC(N)=O)CS[C@H]12)c1ccco1 [cefuroxime]
[1]
  Antibiotic sensitivity: Sensitive

## CC[C@H](C)[C@H](N)C1=N[C@H](C(=O)N[C@@H](CC(C)C)C(=O)N[C@H](CCC(=O)O)C(=O)N[C@H](C(=O)N[C@H]2CCCCNC(=O)[C@H](CC(N)=O)NC(=O)[C@@H](CC(=O)O)NC(=O)[C@H](Cc3cnc[nH]3)NC(=O)[C@@H](Cc3ccccc3)NC(=O)[C@H]([C@@H](C)CC)NC(=O)[C@@H](CCCN)NC2=O)[C@@H](C)CC)CS1 [bacitracin] ({Ileψ(thiazoline)Cys}-L[dE]IK[dOrn]I[dF]H[dD]N; lactam 4-C)
[1]
  Antibiotic sensitivity: resistant

## CCn1cc(C(=O)O)c(=O)c2ccc(C)nc21 [nalidixic acid]
[1]
  Antibiotic sensitivity: Sensitive

## CC(C)CC(NC(=O)C(O)C(O)C(N)CC(N)=O)C1Cc2cccc(O)c2C(=O)O1 (stereo not shown) [Amicoumacin A, amicoumacin A]
[2]
  IC50: 0.75 µg/mL (≈ 1.77 µM)
  antitumour activity against A-549 human lung carcinoma: exhibit antitumour activity
[3]
  IC50: 1.5 µg/mL (≈ 3.54 µM)
  antitumour activity against HT-29 human colon carcinoma: exhibit antitumour activity
[4]
  IC50: 0.15 µg/mL (≈ 0.354 µM)
  antitumour activity against MEL-28 human melanoma: exhibit antitumour activity

## CN(C)C1C(=O)C(C(N)=O)=C(O)C2(O)C(=O)C3=C(O)c4c(O)cccc4C(C)(O)C3CC12 (stereo not shown) [tretracycline]
[1]
  Antibiotic sensitivity: Sensitive

## CN[C@H](CC(C)C)C(=O)N[C@H]1C(=O)N[C@@H](CC(N)=O)C(=O)N[C@H]2C(=O)N[C@H]3C(=O)N[C@H](C(=O)N[C@H](C(=O)O)c4cc(O)cc(O)c4-c4cc3ccc4O)[C@H](O)c3ccc(c(Cl)c3)Oc3cc2cc(c3O[C@@H]2O[C@H](CO)[C@@H](O)[C@H](O)[C@H]2O[C@H]2C[C@](C)(N)[C@H](O)[C@H](C)O2)Oc2ccc(cc2Cl)[C@H]1O [vancomycin]
[1]
  Antibiotic sensitivity: resistant

## CC[C@H]1OC(=O)[C@H](C)[C@@H](O[C@H]2C[C@@](C)(OC)[C@@H](O)[C@H](C)O2)[C@H](C)[C@@H](O[C@@H]2O[C@H](C)C[C@H](N(C)C)[C@H]2O)[C@](C)(O)C[C@@H](C)C(=O)[C@H](C)[C@@H](O)[C@]1(C)O [erythromycin]
[1]
  Antibiotic sensitivity: Sensitive

## teicoplanin
[1]
  Antibiotic sensitivity: resistant

## C[C@@H]1O[C@@H]1P(=O)(O)O [fosfomicin]
[1]
  Antibiotic sensitivity: Sensitive

## CC(C)CC(N)C(O)C(O)C(=O)NC(CC(C)C)C1Cc2cccc(O)c2C(=O)O1 (stereo not shown) [PM-94128]
[2]
  IC50: 0.02 µg/mL (≈ 0.0473 µM)
  antitumour activity against A-549 human lung carcinoma: exhibit antitumour activity
[3]
  IC50: 0.02 µg/mL (≈ 0.0473 µM)
  antitumour activity against HT-29 human colon carcinoma: exhibit antitumour activity
[4]
  IC50: 0.02 µg/mL (≈ 0.0473 µM)
  antitumour activity against MEL-28 human melanoma: exhibit antitumour activity

## CC1(C)S[C@@H]2[C@H](NC(=O)[C@H](N)c3ccccc3)C(=O)N2[C@H]1C(=O)O [ampicillin]
[1]
  Antibiotic sensitivity: Sensitive

## CO[C@H]1/C=C/O[C@@]2(C)Oc3c(C)c(O)c4c(O)c(c(/C=N/N5CCN(C)CC5)c(O)c4c3C2=O)NC(=O)/C(C)=C\C=C\[C@H](C)[C@H](O)[C@@H](C)[C@@H](O)[C@@H](C)[C@H](OC(C)=O)[C@@H]1C [rifampicin]
[1]
  Antibiotic sensitivity: Sensitive

## CO[C@@]1(NC(=O)Cc2cccs2)C(=O)N2C(C(=O)O)=C(COC(N)=O)CS[C@@H]21 [cefoxitin]
[1]
  Antibiotic sensitivity: Sensitive
